Source: patent US20100203647A1, “Chemical Reporters of Protein Acylation” (THE ROCKEFELLER UNIVERSITY, priority 2008, published 2010)
Entries after “also recorded” stand apart in the source; their conditions may differ.

Assays:
[1] = system: Jurkat cells; experiment: Metabolic labeling with inhibitors; settings: for class of acylated proteins targeted by the reporter: from CHX and NH2OH sensitivity in Jurkat cell lysates
[2] = system: Lck; experiment: Pulse-chase tandem imaging of palmitate turnover on Lck in Jurkat T cells; format: cell-based, human; settings: for effect of chemical inhibitor on palmitate turnover on Lck: added during the chase, 20 μM MAFP, 100 μM 2BP; for decay of reporter signal on Lck with excess myristate as the chase additive: over 6 hours
[3] = molecular target: T1, p300 (Homo sapiens, UniProt Q09472); experiment: MALDI-TOF analysis of p300-catalyzed acylation of histone H3 peptide in vitro; format: biochemical; settings: 20 μM analog, MS analysis
T1 construct: made in house; host or cells: SF9 insect cells, baculovirus
T1 sequence (Q09472 whole entry): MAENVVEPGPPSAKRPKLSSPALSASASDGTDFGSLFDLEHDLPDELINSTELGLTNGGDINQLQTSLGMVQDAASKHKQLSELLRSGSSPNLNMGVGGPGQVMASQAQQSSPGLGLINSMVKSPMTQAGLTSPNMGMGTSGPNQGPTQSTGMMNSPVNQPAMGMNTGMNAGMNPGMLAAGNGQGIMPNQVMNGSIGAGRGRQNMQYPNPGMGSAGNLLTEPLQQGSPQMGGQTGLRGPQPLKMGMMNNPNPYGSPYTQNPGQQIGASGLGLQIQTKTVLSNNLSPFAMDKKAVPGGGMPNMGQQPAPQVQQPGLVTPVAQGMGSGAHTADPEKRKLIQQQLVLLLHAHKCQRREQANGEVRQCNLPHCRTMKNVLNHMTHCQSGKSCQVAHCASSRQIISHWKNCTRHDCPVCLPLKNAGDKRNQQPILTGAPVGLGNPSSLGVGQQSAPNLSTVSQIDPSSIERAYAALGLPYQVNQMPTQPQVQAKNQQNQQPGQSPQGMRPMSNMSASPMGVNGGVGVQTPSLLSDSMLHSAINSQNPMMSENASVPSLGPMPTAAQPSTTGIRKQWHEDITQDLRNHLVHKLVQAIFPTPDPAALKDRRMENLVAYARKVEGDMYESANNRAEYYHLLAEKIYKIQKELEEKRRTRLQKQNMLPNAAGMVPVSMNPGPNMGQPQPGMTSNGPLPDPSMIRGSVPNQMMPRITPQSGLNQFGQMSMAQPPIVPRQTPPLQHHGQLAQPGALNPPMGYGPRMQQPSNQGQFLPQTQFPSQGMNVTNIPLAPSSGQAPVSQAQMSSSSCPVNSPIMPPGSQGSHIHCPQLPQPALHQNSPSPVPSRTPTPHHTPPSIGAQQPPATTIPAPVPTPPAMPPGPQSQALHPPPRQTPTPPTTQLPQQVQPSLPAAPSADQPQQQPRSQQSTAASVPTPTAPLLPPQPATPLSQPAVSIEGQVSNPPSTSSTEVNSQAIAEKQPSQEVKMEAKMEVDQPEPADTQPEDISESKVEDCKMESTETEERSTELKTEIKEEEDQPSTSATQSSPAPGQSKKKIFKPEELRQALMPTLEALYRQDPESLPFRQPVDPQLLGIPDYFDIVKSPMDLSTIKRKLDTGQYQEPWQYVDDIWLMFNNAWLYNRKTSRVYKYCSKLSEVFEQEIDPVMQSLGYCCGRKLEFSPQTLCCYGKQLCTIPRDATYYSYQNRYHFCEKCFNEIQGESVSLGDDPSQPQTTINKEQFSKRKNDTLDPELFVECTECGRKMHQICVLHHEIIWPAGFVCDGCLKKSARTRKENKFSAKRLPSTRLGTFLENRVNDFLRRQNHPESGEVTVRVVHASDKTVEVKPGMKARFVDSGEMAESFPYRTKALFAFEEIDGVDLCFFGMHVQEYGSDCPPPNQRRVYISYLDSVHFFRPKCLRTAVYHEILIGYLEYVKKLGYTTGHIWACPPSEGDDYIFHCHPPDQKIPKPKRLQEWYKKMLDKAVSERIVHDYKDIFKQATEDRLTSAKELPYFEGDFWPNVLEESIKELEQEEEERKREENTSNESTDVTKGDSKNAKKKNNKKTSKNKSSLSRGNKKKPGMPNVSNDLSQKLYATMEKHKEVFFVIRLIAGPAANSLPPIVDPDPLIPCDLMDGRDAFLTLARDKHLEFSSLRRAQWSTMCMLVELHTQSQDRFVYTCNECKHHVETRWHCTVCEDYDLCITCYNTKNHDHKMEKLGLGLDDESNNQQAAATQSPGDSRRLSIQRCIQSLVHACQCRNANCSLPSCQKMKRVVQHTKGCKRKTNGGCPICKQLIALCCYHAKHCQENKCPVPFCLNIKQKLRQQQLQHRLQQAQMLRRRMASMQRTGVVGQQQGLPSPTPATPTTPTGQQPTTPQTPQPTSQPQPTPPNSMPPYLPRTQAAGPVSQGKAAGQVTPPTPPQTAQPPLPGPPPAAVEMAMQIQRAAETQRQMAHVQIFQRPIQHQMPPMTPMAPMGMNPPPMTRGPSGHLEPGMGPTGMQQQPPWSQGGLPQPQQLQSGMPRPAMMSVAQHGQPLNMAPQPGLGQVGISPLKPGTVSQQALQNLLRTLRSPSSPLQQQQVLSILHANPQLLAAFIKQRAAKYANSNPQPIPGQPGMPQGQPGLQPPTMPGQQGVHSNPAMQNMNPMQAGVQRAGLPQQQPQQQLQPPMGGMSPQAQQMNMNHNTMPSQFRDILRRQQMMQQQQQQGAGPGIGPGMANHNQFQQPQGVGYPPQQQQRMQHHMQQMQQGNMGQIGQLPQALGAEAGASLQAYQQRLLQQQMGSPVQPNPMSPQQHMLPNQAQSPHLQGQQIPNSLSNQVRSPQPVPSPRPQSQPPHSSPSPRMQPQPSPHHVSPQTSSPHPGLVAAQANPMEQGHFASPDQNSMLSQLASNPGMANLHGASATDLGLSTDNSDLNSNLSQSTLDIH
Method: Cells were lysed in lysis buffer (20 mM Tris, pH 7.5, 500 mM NaCl, 4 mM MgCl2, 0.4 mM EDTA, 20% glycerol, 2 mM DTT, and supplemented with protease inhibitors). Clarified cell lysates were diluted to 300 mM NaCl, and NP-40 was added to 0.1% final concentration. Flag M2 agarose resin (Sigma) was added to the lysate and incubated for 4 hours at 4° C. […] Protein concentration and purity were estimated by comparison to BSA standards on SDS gels stained with Gelcode Blue stain (Pierce).

[4] = system: Jurkat T cells; experiment: Metabolic labeling of Jurkat T cells with alkynyl-acetate analogs, CuAAC with az-Rho, in-gel fluorescence scanning; settings: metabolically-labeled Jurkat T cells
[5] = system: Jurkat T cells; experiment: Proteomic analysis and modification site mapping of alkynyl-acetate analog-labeled proteins; format: cell-based, human; settings: for qualitative comparison among alkynyl-acetate analogs as chemical reporter for protein acetylation: proteomics data and in vitro p300-acylation studies
[6] = system: M. smegmatis; experiment: Labeling of acylated proteins in bacterial cells with alkynyl-chemical reporters; format: cell-based
[7] = system: acetylated proteins such as histones; experiment: Metabolic labeling of acetylated proteins with very short chain alkynyl-chemical reporters, in-gel fluorescence; format: cell-based, human
[8] = molecular target: T2, Fyn (Homo sapiens, UniProt P06241, G2A); experiment: Alkynyl-fatty acid labeling of wild type, G2A and C3,6S Fyn overexpressed in HeLa cells, immunoprecipitation; format: cell-based; settings: 20 μM reporter
T2 construct: expressed in transfected cells; host or cells: HeLa cells
T2 sequence (P06241 2-537 G2A): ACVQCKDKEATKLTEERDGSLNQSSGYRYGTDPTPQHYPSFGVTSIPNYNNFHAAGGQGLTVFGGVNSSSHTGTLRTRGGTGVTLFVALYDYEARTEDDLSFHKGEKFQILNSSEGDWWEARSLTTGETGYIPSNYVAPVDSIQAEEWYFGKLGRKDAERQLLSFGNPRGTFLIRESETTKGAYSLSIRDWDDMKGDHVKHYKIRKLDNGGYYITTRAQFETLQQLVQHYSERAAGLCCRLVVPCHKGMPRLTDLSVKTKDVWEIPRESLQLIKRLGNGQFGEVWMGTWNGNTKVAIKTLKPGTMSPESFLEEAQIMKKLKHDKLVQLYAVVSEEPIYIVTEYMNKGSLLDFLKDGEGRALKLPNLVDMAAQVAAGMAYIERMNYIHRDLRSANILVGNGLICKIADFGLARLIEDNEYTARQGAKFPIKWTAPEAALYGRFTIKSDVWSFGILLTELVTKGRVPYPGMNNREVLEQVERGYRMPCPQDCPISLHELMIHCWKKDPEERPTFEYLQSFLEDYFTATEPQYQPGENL
Method: (§1) HeLa cells were grown in 10 cm dishes to approximately 90% confluence in DMEM, supplemented with 10% FBS, and transfected with wildtype, G2A or C3,6S Fyn constructs using Lipofectamine 2000 (Invitrogen). The human Fyn constructs, wild type and mutant Fyn cDNAs cloned into eukaryotic expression vector pCMV5, were gifts from Dr. Marilyn Resh, Memorial Sloan-Kettering Cancer Center. The following day, cells were metabolically labeled with alkynyl-fatty acid analogs as described above.
(§2) Cell lysates were collected after centrifuging at 1,000 g for 5 minutes at 4° C. to remove cell debris. Protein concentration was determined by the BCA assay. Typical lysate protein concentration obtained: 6-8 mg/mL. LAT, Lck and Ras proteins were immunoprecipitated from 200 μg Jurkat cell lysate using the following antibodies at recommended concentrations: mouse anti-Lck (p56lck) monoclonal (Clone 3A5, Thermo Scientific, Waltham, Mass., USA), rat anti-v-H-ras (Ab-1) monoclonal (Y13-259 agarose conjugate, Calbiochem, San Diego, Calif., USA), and rabbit anti-LAT polyclonal (Millipore, Billerica, Mass., USA). A rabbit anti-Fyn polyclonal (Millipore, Billerica, Mass., USA) was used to immunoprecipitate wild type and mutant Fyn proteins from transfected and metabolically labeled HeLa cells. 25 μL of packed protein A-agarose beads (Roche, Mannheim, Germany) was used per sample.

[9] = molecular target: T3, Fyn (Homo sapiens, UniProt P06241, C3S/C6S); experiment: as above; format: cell-based; settings: 20 μM reporter
T3 construct: expressed in transfected cells; host or cells: HeLa cells
T3 sequence (P06241 2-537 C3S/C6S): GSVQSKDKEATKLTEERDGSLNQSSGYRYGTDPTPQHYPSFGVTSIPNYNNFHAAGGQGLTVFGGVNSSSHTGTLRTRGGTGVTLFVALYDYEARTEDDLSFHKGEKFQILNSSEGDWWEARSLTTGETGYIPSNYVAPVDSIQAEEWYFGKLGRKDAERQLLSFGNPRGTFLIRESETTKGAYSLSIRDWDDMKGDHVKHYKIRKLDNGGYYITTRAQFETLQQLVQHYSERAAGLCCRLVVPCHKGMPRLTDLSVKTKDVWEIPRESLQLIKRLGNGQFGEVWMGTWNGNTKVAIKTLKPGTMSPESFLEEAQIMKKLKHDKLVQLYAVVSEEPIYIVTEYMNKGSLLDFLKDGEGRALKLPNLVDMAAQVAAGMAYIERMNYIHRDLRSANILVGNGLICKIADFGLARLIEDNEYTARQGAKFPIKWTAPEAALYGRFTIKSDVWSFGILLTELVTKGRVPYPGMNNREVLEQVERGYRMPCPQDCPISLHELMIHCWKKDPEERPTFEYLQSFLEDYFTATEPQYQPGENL
Method: as §1, §2

[10] = molecular target: T4, Fyn (Homo sapiens, UniProt P06241); experiment: as above; format: cell-based; settings: 20 μM reporter
T4 construct: expressed in transfected cells; host or cells: HeLa cells
T4 sequence (P06241 2-537): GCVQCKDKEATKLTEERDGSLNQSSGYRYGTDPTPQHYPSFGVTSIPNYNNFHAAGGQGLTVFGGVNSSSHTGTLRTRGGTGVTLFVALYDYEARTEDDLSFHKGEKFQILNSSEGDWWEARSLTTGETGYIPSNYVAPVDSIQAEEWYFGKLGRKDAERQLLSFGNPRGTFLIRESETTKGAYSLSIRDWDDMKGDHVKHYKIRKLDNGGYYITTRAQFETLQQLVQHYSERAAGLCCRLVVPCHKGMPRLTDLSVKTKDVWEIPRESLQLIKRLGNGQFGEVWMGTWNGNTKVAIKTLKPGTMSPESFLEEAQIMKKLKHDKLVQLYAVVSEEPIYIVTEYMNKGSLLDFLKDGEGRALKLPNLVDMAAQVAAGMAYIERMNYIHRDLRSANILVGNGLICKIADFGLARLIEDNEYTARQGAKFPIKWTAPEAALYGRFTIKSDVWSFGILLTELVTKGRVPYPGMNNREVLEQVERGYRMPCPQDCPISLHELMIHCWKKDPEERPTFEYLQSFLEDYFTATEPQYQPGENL
Method: as §1, §2

[11] = system: Lck and LAT; experiment: Hydroxylamine cleavage of S-acylated proteins (in-gel), immunoprecipitated Lck and LAT; format: cell-based, human; settings: 1 M NH2OH pH 7.4; alk-16 on Lck and LAT, alk-12 on Lck
Method: as §2
The gel was finally washed with deionized water (2×5 minutes) and scanned for the post-hydroxylamine treatment fluorescence.

[12] = In vivo labeling of acylated proteins after intraperitoneal injection of alkynyl-chemical reporters; settings: mice, one hour, splenocytes, liver
Method: Livers were harvested and incubated with Liberase 3 Blendzyme™ (Roche, Mannheim, Germany) at 37° C. for 30 minutes+ and homogenized prior to filtration with 0.4 μm cell strainers. Splenocytes were prepared by manual disruption of spleens using forceps. Liver and splenocyte preparations were subjected to red blood cell lysis using ACK lysis buffer.
Livers and kidney were harvested and incubated with Liberase 3 Blendzyme (Roche, Mannheim, Germany) at 37° C. for 30 minutes and homogenized prior to filtration with 0.4 μm cell strainers. Splenocytes were prepared by manual disruption of spleens using forceps. Liver, kidney and splenocyte preparations were subjected to red blood cell lysis using ACK lysis buffer.

[13] = Absorbance and fluorescence studies of clickable CyFur dyes; format: physicochemical; settings: for εmax^b (M^−1cm^−1): in MeOH, at 470 nm for az-CyFur-1, az-CyFur-2 and at 580 nm for alk-CyFur, averaged over three independent experiments; for ΦF^c: quantum yield referenced against cresyl violet, alk-CyFur excited at 580 nm, az-CyFur-1 and az-CyFur-2 at 470 nm; for λmax^a (nm) (first column) / λmax^a (nm) (second column): spectra obtained in DMSO
Method: Absorbance and fluorescence studies. Absorption spectra and fluorescence data were collected on SpectraMax M2 multi-detection reader (Molecular Devices). The spectra in solution were obtained at 25° C. using a quartz cuvette with a path length of 1 cm. Fluorescence quantum yields (ΦF) of CyFur dyes were determined against cresyl violet (ΦF=0.54 in methanol).

[14] = system: Jurkat T cell lysates; experiment: Streptavidin affinity enrichment and Na2S2O4 elution of azido-chemical reporter labeled Jurkat T cell lysates reacted with alk-diazo-biotin; format: cell-based, human; settings: Coomassie staining of polypeptides eluted from streptavidin beads
[15] = system: metabolic incorporation of chemical reporters; experiment: Effect of inhibitors/additives on metabolic incorporation of alkynyl-chemical reporters; format: cell-based
[16] = system: Jurkat cells; experiment: Competition of metabolic labeling with naturally occurring fatty acids; settings: 2 hours, myristic acid 0, 10 or 100 μM, palmitic acid 0, 100 or 200 μM

For `CCCCCCCCCCCCCCC(Br)C(=O)O` (stereo not drawn) [2-BP, 2-bromopalmitate, reference compound], the “effect of inhibitor on alkynyl-fatty acid protein labeling (alk-12, alk-14, alk-16, 20 μM)” value ([1]; Jurkat cells, CHX 10 μM, HMA 1 mM, 2-BP 50 μM, 30 minutes pre-incubation) was “reduced protein labeling with alk-12, alk-14 and alk-16” and the “effect of chemical inhibitor on palmitate turnover on Lck” value [2] was “decreased Lck depalmitoylation rate”.
With `C#CCCSCCNC(=O)CCNC(=O)[C@H](O)C(C)(C)COP(=O)(O)OP(=O)(O)OC[C@H]1O[C@@H](n2cnc3c(N)ncnc32)[C@H](O)[C@@H]1OP(=O)(O)O` [Analog 1, 3-butynyl-CoA] the “utilization as acyl-CoA donor for p300-catalyzed acylation of histone H3 peptide” value [3] was “does not appear to be utilized efficiently by p300” and the “utilization as acyl-CoA donor for p300-catalyzed acylation of histone H3 peptide” value ([3]; listed as 3-butynyl-CoA) was “not efficiently utilized by p300 in vitro”.
For `C#CCC(=O)[O-].[Na+]` [Analog 4, sodium 3-butynoate], the “labeling of known lysine-acetylated proteins (enriched core histones, immunoprecipitated histone H3)” value [4] was “specifically labeled”.
With `C#CCCC(=O)[O-].[Na+]` [Analog 5, sodium 4-pentynoate] the “sites of metabolic incorporation (MS/MS of enriched peptides)” value ([5]; Jurkat T cell lysates) was “metabolically incorporated into known sites of lysine acetylation on histone H2B, H3 and H4”, the “labeled proteins also identified by anti-acetyl-Lys proteomic studies” value ([5]; Jurkat T cells) was 86% and the “number of labeled proteins identified” value ([5]; Jurkat T cells, three independent experiments) was “approximately 194”. The “qualitative comparison among alkynyl-acetate analogs as chemical reporter for protein acetylation” value [5] was “optimal chemical reporter for detecting protein acetylation” and the “labeling of known lysine-acetylated proteins (enriched core histones, immunoprecipitated histone H3)” value [4] was “specifically labeled”.
With `C#CCCCC(=O)[O-].[Na+]` [Analog 6, sodium 5-hexynoate] the “qualitative comparison among alkynyl-acetate analogs as chemical reporter for protein acetylation” value [5] was “may also target cellular fatty-acylated proteins” and the “labeling of known lysine-acetylated proteins (enriched core histones, immunoprecipitated histone H3)” value [4] was “specifically labeled”.
For `O=S(=O)(F)Cc1ccccc1` [PMSF, phenylmethylsulfonyl fluoride, reference compound], the “effect of chemical inhibitor on palmitate turnover on Lck” value [2] was “no apparent effect on the initial rate of palmitate removal”.
For `C#CCC(=O)O` [alk-2, buta-3-ynoic acid], the “labeling of proteins in bacterial cells” value [6] was “labeled distinct proteins” and the “labeling of acetylated proteins” value [7] was “found to label acetylated proteins such as histones”.
With `C#CCCCC(=O)O` [alk-4, hexa-5-ynoic acid] the “labeling of proteins in bacterial cells” value [6] was “labeled distinct proteins”, the “labeling of acetylated proteins” value [7] was “found to label acetylated proteins such as histones” and the “relative efficiency of labeling acetylated proteins among alk-2, alk-3, alk-4” value [7] was “most efficient labeling of acetylated proteins; also recorded: more efficient”.
For `C#CCCCCCCCCCCCC(=O)O` [alk-12, Tetradec-13-ynoic acid], the “labeling of N-myristoylation G2A-mutant Fyn” value [8] was “significantly reduced”, the “labeling of dual S-palmitoylation-deficient C3,6S mutant Fyn” value [9] was “efficiently labeled” and the “fatty-acylation of wild-type Fyn” value [10] was “readily detected”. For the same molecule, the “class of acylated proteins targeted by the reporter” value (from here on “class of acylated proteins targeted”) [1] was “cotranslationally targets N-myristoylated proteins”, the “labeling of proteins in bacterial cells” value [6] was “labeled distinct proteins” and the “effect of in-gel NH2OH treatment on fluorescent signal of reporter-labeled protein” value [11] was “did not alter”. For the same molecule, the “profile of acylated proteins after in vivo labeling” value [12] was “discrete profile of acylated proteins from splenocytes similar to ex vivo labeling”.
In the case of `C#CCCCCCCCCCCCCCC(=O)O` [alk-14, Hexadec-15-ynoic acid], the “class of acylated proteins targeted” value [1] is reported as “appears to represent a combination of alk-12 and alk-16 labeling”.
For `C#CCCCCCCCCCCCCCCCC(=O)O` [alk-16, Octadec-17-ynoic acid], the “labeling of N-myristoylation G2A-mutant Fyn” value [8] was “undetectable”, the “fatty-acylation of wild-type Fyn” value [10] was “readily detected” and the “class of acylated proteins targeted” value [1] was “preferentially labels S-acylated proteins”. The “labeling of proteins in bacterial cells” value [6] was “labeled distinct proteins”, the “effect of in-gel NH2OH treatment on fluorescent signal of reporter-labeled protein” value [11] was “reduced the fluorescent signal” and the “profile of acylated proteins after in vivo labeling” value [12] was “did not reveal discrete profiles of acylated proteins in splenocytes or liver”. The “decay of reporter signal on Lck with excess myristate as the chase additive” value [2] was “No significant decay”.
In the case of `C#CCCNc1ccc(/C=C/C2=C(C#N)C(=C(C#N)C#N)OC2(C)C)cc1` [alk-CyFur, (E)-2-(4-(4-(but-3-ynylamino)styryl)-3-cyano-5,5-dimethylfuran-2(5H)-ylidene)malononitrile], the “absorption (abs) maxima” value [13] is reported as 580 nm, the “emission (em) maxima” value [13] is reported as 640 nm and the “εmax^b (M^−1cm^−1)” value [13] is reported as 33,933 M^−1cm^−1. The “ΦF^c” value [13] was 0.0147, the “λmax^a (nm) (first column)” value [13] was 580 nm and the “λmax^a (nm) (second column)” value [13] was 640 nm.
In the case of `[N-]=[N+]=NCCCCCCCCCCCC(=O)O` [az-12, 12-azido-dodecanoic acid], the “proteins recovered from labeled cell lysates compared to control (-)” value [14] is reported as “significantly greater amounts of proteins recovered” and the “decay of reporter signal on Lck with excess myristate as the chase additive” value [2] is reported as “No significant decay”.
For `[N-]=[N+]=NCCCCCCCCCCCCCCC(=O)O` [az-15, 15-azido-pentadecanoic acid], the “proteins recovered from labeled cell lysates compared to control (-)” value [14] was “significantly greater amounts of proteins recovered”.
With `CC1(C)OC(=C(C#N)C#N)C(C#N)=C1/C=C/c1ccc(NC(=O)OCCN=[N+]=[N-])cc1` [az-CyFur-1] the “absorption (abs) maxima” value [13] was 470 nm, the “emission (em) maxima” value [13] was 580 nm and the “εmax^b (M^−1cm^−1)” value [13] was 20,533 M^−1cm^−1. For the same molecule, the “ΦF^c” value [13] was 0.0067, the “λmax^a (nm) (first column)” value [13] was 470 nm and the “λmax^a (nm) (second column)” value [13] was 580 nm.
With `CCCC(=O)O` [butyric acid] the “effect on labeling of acetylated proteins with alk-4” value [15] was “inhibited”.
For `CCCCCCCCCCCCCC(=O)O` [myristic acid], the “competition of alkynyl-fatty acid protein labeling (alk-12, alk-14, alk-16, 10 μM)” value [16] was “alk-12 protein labeling is selectively blocked”.
For `CCCCCCCCCCCCCCCC(=O)O` [palmitic acid], the “competition of alkynyl-fatty acid protein labeling (alk-12, alk-14, alk-16, 10 μM)” value [16] was “alk-14 and alk-16 protein labeling is most effectively reduced”.
